Experimental data published in publication PMC10913730, “Antimicrobial activity of a natural compound and analogs against multi-drug-resistant Gram-positive pathogens” (Microbiology Spectrum, 2024).
≈ marks a conversion by molar mass, not a printed value. Read-outs that look alike come from different tables or passages of the source.

Legend:
Enterococcus faecalis = assay: MIC/MBC against Enterococcus faecalis; format: cell-based
[1] = test system: Staphylococcus epidermidis isolates; assay: microbe, parasite or virus in culture; format: cell-based; conditions: 21 Staphylococcus epidermidis isolates
[2] = test system: human bronchial epithelial (16HBE) cells; assay: alamarBlue cell viability assay, 16HBE; conditions: 24-hour incubation, non-linear regression
[3] = test system: erythrocytes (sheep blood); assay: Hemolytic activity against sheep erythrocytes; conditions: higher than MIC90
Pseudomonas aeruginosa = assay: MIC against Pseudomonas aeruginosa; format: cell-based
[4] = test system: MRSA isolate SAD05 biofilms; format: cell-based, Staphylococcus aureus
[5] = test system: human dermal fibroblast (HDF) cells; assay: alamarBlue cell viability assay, HDF; conditions: HDFs, 24-hour incubation, non-linear regression
MRSA isolates = assay: MIC/MBC, CLSI broth microdilution, MRSA isolates; format: cell-based, Staphylococcus aureus
[6] = pH and Ka of 10-g/L aqueous solutions (pH meter); format: physicochemical; conditions: 10-g/L solution in distilled, deionized water
Streptococcus pyogenes = assay: MIC/MBC against Streptococcus pyogenes; format: cell-based; conditions: for MBC: Streptococcus pyogenes
[7] = ATCC49532, Enterococcus faecalis (ATCC 49532)
[8] = ATCC51575, Enterococcus faecalis (ATCC 51575)
[9] = Staphylococcus aureus, MRSA, pH 5.5, MRSA 0606, pH 5.5
[10] = Staphylococcus aureus, MRSA, pH 5.5, MRSA 0608, pH 5.5
[11] = Staphylococcus aureus, MRSA, pH 5.5, MRSA 0634, pH 5.5
[12] = Staphylococcus aureus, MRSA, pH 5.5, MRSA 0641, pH 5.5
[13] = Staphylococcus aureus, MRSA, pH 5.5, MRSA 0646, pH 5.5
[14] = Staphylococcus aureus, MRSA, pH 5.5, TCH 1516, pH 5.5
[15] = Staphylococcus aureus, MRSA, pH 6.5, MRSA 0606, pH 6.5
[16] = Staphylococcus aureus, MRSA, pH 6.5, MRSA 0608, pH 6.5
[17] = Staphylococcus aureus, MRSA, pH 6.5, MRSA 0634, pH 6.5
[18] = Staphylococcus aureus, MRSA, pH 6.5, MRSA 0641, pH 6.5
[19] = Staphylococcus aureus, MRSA, pH 6.5, MRSA 0646, pH 6.5
[20] = Staphylococcus aureus, MRSA, pH 6.5, TCH 1516, pH 6.5
[21] = Streptococcus pyogenes (NR1571)

Compound: Oc1c(Br)cc(Br)cc1-c1cc(Br)cc(Br)c1O [C58, MC21-A]
- MBC (Enterococcus faecalis; [7]): 12 µg/mL (≈ 23.9 µM)
- MIC (Enterococcus faecalis; [7]): 6 µg/mL (≈ 12 µM)
- MBC (Enterococcus faecalis; [8]): 12 µg/mL (≈ 23.9 µM)
- MIC (Enterococcus faecalis; [8]): 6 µg/mL (≈ 12 µM)
- MBC range [1]: 4 to 12 µg/mL
- MIC range [1]: 1 to 4 µg/mL
- MBC ([1]; read-out: MBC90): 8 µg/mL (≈ 15.9 µM)
- MIC90 ([1]; read-out: MIC90): 2 µg/mL (≈ 3.99 µM)
- LD50 [2]: 59.3 µg/mL
- concentration where hemolytic activity begins relative to MIC90 [3]: 32 fold
- MIC (Pseudomonas aeruginosa; Pseudomonas aeruginosa (PAM57-15)): > 32 µg/mL
- MIC (Pseudomonas aeruginosa; Pseudomonas aeruginosa (PAO1)): > 32 µg/mL
- concentration that completely eradicated biofilms ([4]; 72-hour biofilms of SAD05, MBEC assay): 8 µg/mL
- biofilm biomass, crystal violet assay ([4]; SAD05 biofilms, compared with vancomycin): lower biomass
- LD50 [5]: 71.3 µg/mL
- MBC (MRSA isolates; MRSA 0606, pH 7.4): 6 µg/mL (≈ 12 µM)
- MIC (MRSA isolates; MRSA 0606, pH 7.4): 2 µg/mL (≈ 3.99 µM)
- MBC (MRSA isolates; MRSA 0608, pH 7.4): 4 µg/mL (≈ 7.97 µM)
- MIC (MRSA isolates; MRSA 0608, pH 7.4): 2 µg/mL (≈ 3.99 µM)
- MBC (MRSA isolates; MRSA 0634, pH 7.4): 2 µg/mL (≈ 3.99 µM)
- MIC (MRSA isolates; MRSA 0634, pH 7.4): 2 µg/mL (≈ 3.99 µM)
- MBC (MRSA isolates; MRSA 0641, pH 7.4): 4 µg/mL (≈ 7.97 µM)
- MIC (MRSA isolates; MRSA 0641, pH 7.4): 2 µg/mL (≈ 3.99 µM)
- MBC (MRSA isolates; MRSA 0646, pH 7.4): 4 µg/mL (≈ 7.97 µM)
- MIC (MRSA isolates; MRSA 0646, pH 7.4): 2 µg/mL (≈ 3.99 µM)
- MIC90 (MRSA isolates; Staphylococcus aureus, MRSA): 2 µg/mL (≈ 3.99 µM)
- MBC (MRSA isolates; [9]): 0.5 µg/mL (≈ 0.996 µM)
- MIC (MRSA isolates; [9]): 0.5 µg/mL (≈ 0.996 µM)
- MBC (MRSA isolates; [10]): 0.5 µg/mL (≈ 0.996 µM)
- MIC (MRSA isolates; [10]): 0.5 µg/mL (≈ 0.996 µM)
- MBC (MRSA isolates; [11]): 0.5 µg/mL (≈ 0.996 µM)
- MIC (MRSA isolates; [11]): 0.5 µg/mL (≈ 0.996 µM)
- MBC (MRSA isolates; [12]): 0.5 µg/mL (≈ 0.996 µM)
- MIC (MRSA isolates; [12]): 0.5 µg/mL (≈ 0.996 µM)
- MBC (MRSA isolates; [13]): 1 µg/mL (≈ 1.99 µM)
- MIC (MRSA isolates; [13]): 0.5 µg/mL (≈ 0.996 µM)
- MBC (MRSA isolates; [14]): 1 µg/mL (≈ 1.99 µM)
- MIC (MRSA isolates; [14]): 1 µg/mL (≈ 1.99 µM)
- MBC (MRSA isolates; Staphylococcus aureus, MRSA, pH 5.5, read-out: Average MBC, average of six MRSA isolates, pH 5.5): 0.67 µg/mL (≈ 1.34 µM)
- MIC (MRSA isolates; Staphylococcus aureus, MRSA, pH 5.5, read-out: Average MIC, average of six MRSA isolates, pH 5.5): 0.58 µg/mL (≈ 1.16 µM)
- MBC (MRSA isolates; [15]): 2 µg/mL (≈ 3.99 µM)
- MIC (MRSA isolates; [15]): 1 µg/mL (≈ 1.99 µM)
- MBC (MRSA isolates; [16]): 2 µg/mL (≈ 3.99 µM)
- MIC (MRSA isolates; [16]): 2 µg/mL (≈ 3.99 µM)
- MBC (MRSA isolates; [17]): 2 µg/mL (≈ 3.99 µM)
- MIC (MRSA isolates; [17]): 1 µg/mL (≈ 1.99 µM)
- MBC (MRSA isolates; [18]): 2 µg/mL (≈ 3.99 µM)
- MIC (MRSA isolates; [18]): 1 µg/mL (≈ 1.99 µM)
- MBC (MRSA isolates; [19]): 2 µg/mL (≈ 3.99 µM)
- MIC (MRSA isolates; [19]): 1 µg/mL (≈ 1.99 µM)
- MBC (MRSA isolates; [20]): 2 µg/mL (≈ 3.99 µM)
- MIC (MRSA isolates; [20]): 1 µg/mL (≈ 1.99 µM)
- MBC (MRSA isolates; Staphylococcus aureus, MRSA, pH 6.5, read-out: Average MBC, average of six MRSA isolates, pH 6.5): 2 µg/mL (≈ 3.99 µM)
- MIC (MRSA isolates; Staphylococcus aureus, MRSA, pH 6.5, read-out: Average MIC, average of six MRSA isolates, pH 6.5): 1.2 µg/mL (≈ 2.39 µM)
- MBC (MRSA isolates; Staphylococcus aureus, MRSA, pH 7.4, read-out: Average MBC, average of six MRSA isolates, pH 7.4): 4 µg/mL (≈ 7.97 µM)
- MIC (MRSA isolates; Staphylococcus aureus, MRSA, pH 7.4, read-out: Average MIC, average of six MRSA isolates, pH 7.4): 2 µg/mL (≈ 3.99 µM)
- MBC (MRSA isolates; Staphylococcus aureus, MRSA, read-out: MBC90, 39 evaluated MRSA isolates, CLSI broth microdilution): 4 µg/mL (≈ 7.97 µM)
- MBC (MRSA isolates; TCH 1516, pH 7.4): 4 µg/mL (≈ 7.97 µM)
- MIC (MRSA isolates; TCH 1516, pH 7.4): 2 µg/mL (≈ 3.99 µM)
- change of MIC and MBC with the reduction in pH (MRSA isolates; six MRSA isolates, pH lowered to 5.5): decreased as much as fourfold
- acid dissociation constant (Ka) [6]: 1.26 × 10^−12
- pH of solution ([6]; room temperature): 6.80
- MIC (Streptococcus pyogenes; [21]): 4 µg/mL (≈ 7.97 µM)
- MIC (Streptococcus pyogenes; Streptococcus pyogenes (NR1575), read-out: MIC): 4 µg/mL (≈ 7.97 µM)
- MBC (Streptococcus pyogenes; [21]): 16 µg/mL (≈ 31.9 µM)
- MBC (Streptococcus pyogenes; Streptococcus pyogenes (NR1575)): 12 µg/mL (≈ 23.9 µM)
